Assay results from US7115724B2, “Murine genomic polynucleotide sequence encoding a G-protein coupled receptor and methods of use therefor” (priority 2001, dated 2006).
Like-named read-outs stand apart in the source and are kept apart here.

Assays:
[1] = target: T1, mouse P2T receptor (Mus musculus, UniProt Q9CPV9); assay: Yeast cell-based assay of mouse P2T receptor agonist activation (β-galactosidase reporter); details: for rank order of potency of agonist stimulation of the mouse P2T receptor: yeast assay (FIG. 2)
T1 construct: Oligonucleotides corresponding to the 5′ and 3′ ends of the predicted protein coding region were used to amplify a fragment; expressed in transfected cells; host or cells: Saccharomyces cerevisiae MPY578 variant expressing a Gpa1-Gαt chimera, with pMP344 (p426GPD backbone) and the FUS1-LacZ reporter pMP283
T1 sequence (Q9CPV9 whole entry, the tested form may be a part): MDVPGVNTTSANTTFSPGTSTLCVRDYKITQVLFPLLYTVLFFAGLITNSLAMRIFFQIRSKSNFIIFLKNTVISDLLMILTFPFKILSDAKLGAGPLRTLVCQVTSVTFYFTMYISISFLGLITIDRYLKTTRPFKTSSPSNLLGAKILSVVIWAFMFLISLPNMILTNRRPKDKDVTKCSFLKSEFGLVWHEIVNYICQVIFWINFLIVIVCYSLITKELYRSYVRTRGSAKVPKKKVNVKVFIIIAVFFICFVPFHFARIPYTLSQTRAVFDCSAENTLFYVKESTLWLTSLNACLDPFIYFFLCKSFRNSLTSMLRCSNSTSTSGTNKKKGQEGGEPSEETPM
From the text: In order to facilitate coupling of the P2T receptor to G protein, MPY578 variant cells express chimeric G alpha proteins coupled to the mating signal transduction pathway. The chimeric constructs are expressed from the GPA1 locus and are composed of Gpa1 sequences in which the 5 C-terminal amino acids have been replaced with those of all the mammalian Gα proteins. A multicopy FUS1-LacZ reporter gene plasmid, pMP283, was introduced into P2T receptor-containing cells and selected on media lacking trp and ura. The resulting yeast strains were used for further analysis.
MPY578 cells that express Gpa1-Gαt chimeric G alpha protein and containing pMP344 and pMP283 were diluted in assay medium (SCD-ura-trp, pH 6.8, 25 mM PIPES, 1 mM 3-aminotriazole) dispensed (5×10^6/ml, 200 μl/well) to the wells of 96-well microtiter dishes containing purinergic ligands. The plates were incubated with shaking (600 rpm) at 30° C. for 3 hours. Samples (25 μl) were transferred to Wallac B & W isoplates for β-galactosidase assay. An equal volume of GAL-SCREEN lysis and chemiluminescent β-galactosidase assay mixture was added. The plates were incubated for 30 min at 30° C. and light emission measured using a Wallac Victor II. Assays were conducted in quadruplicate and results were plotted using GraphPad Prizm.

[2] = target: T2, human P2Y12 receptor (Homo sapiens, UniProt Q9H244); details: Zhang et al., 2001, cited from earlier work; for rank order of potency, human P2T (P2Y12) receptor in adenylyl cyclase inhibition assays: reported values
T2 sequence (Q9H244 whole entry): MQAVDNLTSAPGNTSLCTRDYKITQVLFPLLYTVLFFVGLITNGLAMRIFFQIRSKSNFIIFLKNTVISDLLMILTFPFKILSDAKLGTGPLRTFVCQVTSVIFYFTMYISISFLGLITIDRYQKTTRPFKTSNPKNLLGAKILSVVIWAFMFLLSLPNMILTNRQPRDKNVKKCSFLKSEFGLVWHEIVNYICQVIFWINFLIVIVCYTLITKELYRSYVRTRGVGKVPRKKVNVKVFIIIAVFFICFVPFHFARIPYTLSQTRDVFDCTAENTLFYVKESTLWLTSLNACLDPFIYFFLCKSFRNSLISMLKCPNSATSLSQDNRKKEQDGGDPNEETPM

[3] = target: T2, human P2Y12 receptor; details: Xenopus oocytes injected with P2T (human P2Y12) receptor cRNA; Hollopeter et al., 2001; read-out: EC50, stimulation of Kir3.1/Kir3.2 inwardly rectifying K+ currents; cited from earlier work
[4] = target: T2, human P2Y12 receptor; design: host or cells: NIH3T3 cells with a chimeric Gq/i3 construct (FLIPR); details: cited from earlier work; for rank order of potency, human P2T (P2Y12) receptor measured in FLIPR: reported values, Zhang et al., 2001
[5] = target: T3, mouse P2Y12 (Mus musculus, UniProt Q9CPV9); assay: Agonist-induced release of intracellular calcium (FLIPR) in NIH3T3 cells expressing mouse P2Y12 and chimeric Gαq/i3; type: cell-based; details: for rank order of potency of agonist stimulation of the mouse P2Y12 receptor in FLIPR: NIH3T3 Gαq/i3 cells (FIG. 4)
T3 construct: expressed in transfected cells; host or cells: NIH3T3 cells stably transfected with pCDNA-Gαq/i3 and pCDNA3.1-mP2Y12
T3 sequence (Q9CPV9 whole entry): as the sequence (Q9CPV9 whole entry, the tested form may be a part) above
Protocol: Mammalian cell expression and measurement of intracellular calcium. NIH3T3 cells were stably transfected with pCDNA-Gαq/i3 by electroporation and cultured in the presence of 800 μg/ml neomycin. The NIH3T3 Gαq/i3 line was subsequently stably transfected with pCDNA3.1-mP2Y12 by electroporation and cultured in the presence of 800 μg/ml neomycin and 400 μg/ml hygromycin. Cells were plated without selection and grown overnight at 37° C. The cells were washed with Hank's balanced salt solution without phenol red plus 20 mM HEPES, 2.5 mM probenecid, pH 7.4 and loaded with wash solution plus 5 μM Fluo-4, 0.04% pluronic acid and 1% fetal bovine serum for 1 hour at 37° C. After removing the dye solution and washed with wash buffer, agonists were added and analyzed using the FLIPR (PE Biosystems) to measure accumulation of intracellular calcium in response to compound treatments.
In published reports, Xenopus oocytes injected with the human P2Y12 receptor cRNA and coupled to stimulation of coinjected Kir3.1/Kir3.2 inwardly rectifying K+ currents, the EC50 was 300 nM (Hollopeter, 2001). […] The rank orders of potency of agonist stimulation of the mouse P2Y12 receptor in FLIPR (2MeSADP>ADP=ADPβS>ATPγS) agree well with reported values for the human P2Y12 receptor measured in FLIPR (2MeSADP=2MeSATP>ADP=ADPβS>2CIATP>ATPγS) and in adenylyl cyclase inhibition assays (2MeSATP>2MeSADP>ADP>ATPγS>ADPβS>2CIATP) (Zhang, 2001).

| SMILES | EC50 ([1]; MPY578 yeast cells, β-galactosidase reporter, read-out: EC50 for ADP stimulation of the mouse P2T assayed in yeast) [nM] | rank order of potency of agonist stimulation of the mouse P2T receptor [1] | EC50 ([2]; read-out: EC50, ADP dependent inhibition of cAMP accumulation) [nM] | rank order of potency, human P2T (P2Y12) receptor in adenylyl cyclase inhibition assays [2] | EC50 [3] [nM] | EC50 ([4]; NIH3T3 cells, receptor with chimeric Gq construct, literature value, read-out: EC50 measured by FLIPR) [nM] | rank order of potency, human P2T (P2Y12) receptor measured in FLIPR [4] | EC50 ([5]; FLIPR, NIH3T3 Gαq/i3 cells, read-out: EC50 for ADP stimulation of the mouse P2Y12 dependent release of intracellular calcium) [nM] | rank order of potency of agonist stimulation of the mouse P2Y12 receptor in FLIPR [5] [MeSADP>ADP=ADPβS>ATPγS] |
| --- | --- | --- | --- | --- | --- | --- | --- | --- | --- |
| Nc1ncnc2c1ncn2[C@@H]1O[C@H](COP(=O)(O)OP(=O)(O)O)[C@@H](O)[C@H]1O [ADP] | 256 | 2MeSADP>2MeSATP>ADP=ADPβS>ATPγS>2CIATP | 61 | 2MeSATP>2MeSADP>ADP>ATPγS>ADPβS>2CIATP | 300 | 74 | 2MeSADP=2MeSATP>ADP =ADPβS>2CIATP>ATPγS | 27 | 2 |
| Nc1nc(Cl)nc2c1ncn2[C@@H]1O[C@H](COP(=O)(O)OP(=O)(O)OP(=O)(O)O)[C@@H](O)[C@H]1O [2CIATP] |  | 2MeSADP>2MeSATP>ADP=ADPβS>ATPγS>2CIATP |  | 2MeSATP>2MeSADP>ADP>ATPγS>ADPβS>2CIATP |  |  | 2MeSADP=2MeSATP>ADP =ADPβS>2CIATP>ATPγS |  |  |
| CSc1nc(N)c2ncn([C@@H]3O[C@H](COP(=O)(O)OP(=O)(O)OP(=O)(O)O)[C@@H](O)[C@H]3O)c2n1 [2MeSATP] |  | 2MeSADP>2MeSATP>ADP=ADPβS>ATPγS>2CIATP |  | 2MeSATP>2MeSADP>ADP>ATPγS>ADPβS>2CIATP |  |  | 2MeSADP=2MeSATP>ADP =ADPβS>2CIATP>ATPγS |  |  |
| Nc1ncnc2c1ncn2[C@@H]1O[C@H](COP(=O)(O)OP(=O)(O)OP(O)(O)=S)[C@@H](O)[C@H]1O [ATPγS] |  | 2MeSADP>2MeSATP>ADP=ADPβS>ATPγS>2CIATP |  | 2MeSATP>2MeSADP>ADP>ATPγS>ADPβS>2CIATP |  |  | 2MeSADP=2MeSATP>ADP =ADPβS>2CIATP>ATPγS |  | 2 |
| Nc1ncnc2c1ncn2[C@@H]1O[C@H](COP(=O)(O)OP(O)(O)=S)[C@@H](O)[C@H]1O [ADPβS] |  | 2MeSADP>2MeSATP>ADP=ADPβS>ATPγS>2CIATP |  | 2MeSATP>2MeSADP>ADP>ATPγS>ADPβS>2CIATP |  |  | 2MeSADP=2MeSATP>ADP =ADPβS>2CIATP>ATPγS |  | 2 |
| CSc1nc(N)c2ncn([C@@H]3O[C@H](COP(=O)(O)OP(=O)(O)O)[C@@H](O)[C@H]3O)c2n1 [2MeSADP] |  | 2MeSADP>2MeSATP>ADP=ADPβS>ATPγS>2CIATP |  | 2MeSATP>2MeSADP>ADP>ATPγS>ADPβS>2CIATP |  |  | 2MeSADP=2MeSATP>ADP =ADPβS>2CIATP>ATPγS |  | 2 |
